Results published in publication PMC8769378, “Underlining the Importance of Peripheral Protic Functional Groups to Enhance the Proton Exchange of Gd-Based MRI Contrast Agents” (Inorganic Chemistry, 2021).
Where two headings read alike, the source gives them in different places. Marks after values point to notes of the source that are not given here. One block for each compound: values may come before it.

Experiments:
[1] = cited from earlier work
[2] = cited from earlier work; remark: listed apart in the source
[3] = Conditional stability constant pGd; format: physicochemical; conditions: pGd = −log[Gd]free, [Gd^3+] = 1 μM, [L] = 10 μM, pH = 7.4; calculated from the constants
[4] = cited from earlier work; remark: listed apart in the source
[5] = design: method as in PMID 18963244, doi:10.1016/0020-1693(96)05094-3; conditions: cited from earlier work
[6] = cited from earlier work; remark: listed apart in the source
[7] = cited from earlier work; remark: listed apart in the source
[8] = cited from earlier work; remark: listed apart in the source
[9] = Acid-assisted dissociation kinetics of Gd^III complexes followed by ^1H NMR relaxometry; conditions: calculated from acid-assisted dissociation only, pH = 7.4, 298 K; comparators from literature constants
Description: In order to investigate the kinetic inertness of the Gd^III complex, the dissociation reactions of GdL2 were followed by ^1H NMR relaxometry (21 MHz and 298 K) in the presence of large acid excess ([HCl] = 0.01–1.0 M) to guarantee the pseudo-first-order kinetic conditions.
The kinetic inertness of the GdL2 was characterized by the rates of the dissociation reactions taking place in 0.01–1.0 M HCl solution. The dissociation reactions of the GdL2 were followed by measuring the longitudinal relaxation time of H2O protons (T1) with a Stelar relaxometer connected to a Bruker WP80 NMR electromagnet adapted to variable-field measurements (15–80 MHz proton Larmor frequency). The temperature was controlled with a Stelar VTC-91 airflow heater equipped with a calibrated copper–constantan thermocouple (uncertainty of ±0.1 °C). Measures were carried out at 21 MHz and 25 °C. The longitudinal relaxation time (T1) was measured with the “inversion recovery” method (180° – τ – 90°) by using 16 different τ values with a typical 90° pulse width of 6.5 μs, 4 scans. The measurements were performed with a 1 mM solution of the GdL2 complex. The relaxivity values were given as r1 = 1/T1p + 1/T1w where T1p and T1w are the relaxation times of the bulk water protons in the presence and absence of GdL2. The pseudo-first-order rate constants (kd) were calculated by fitting the relaxation rate (r1 = 1/T1p) data to eq 4. […] 4 where rr and rv are the relaxivity values of the reactants and the product (Gd^3+: r1p = 12.85 (2) mM^–1 s^–1, 21 MHz, 25 °C) and rt is the measured relaxivity at reaction time t. The temperature was maintained at 25 °C, and the ionic strength of the solutions was kept constant at [H^+] ≤ 0.15 M, [HCl] + [NaCl] = 0.15 M. The calculation of the kinetic parameters was performed by the fitting of the absorbance–time and relaxation rate–time data pairs with the Micromath Scientist computer program (version 2.0, Salt Lake City, UT).
Kinetic inertness of GdL2
In order to investigate the kinetic inertness of GdL2, the dissociation reactions of GdL2 were followed
by 1H-NMR relaxometry in the presence of large acid excess ([HCl]= 0.01 – 1.0 M) to guarantee the
pseudo-first-order kinetic conditions. The R1obs values as a function of time for the dissociation
In the presence of HCl excess, the dissociation of GdL2 can be treated as a pseudo-first-order process
and the rate of the reaction can be expressed by Eq. (S7)
where kd is a pseudo-first-order rate constant, [GdL]t and [GdL]tot are the concentrations of the GdL
species at time t and the total concentration of the complex, respectively. The rates of the dissociation
reactions were determined at different concentrations of HCl ([HCl]=0.01 – 1.0 M).
The proton assisted dissociation
of GdL2 might occur by the equilibrium formation of a protonated *Gd(H2L2) intermediate (Eq.
(S8)), which dissociates spontaneously (Eq. (S9)).
Gd(HL2) + H Gd(H2L2) (S8)

[10] = cited from earlier work; remark: listed apart in the source
[11] = design: method as in PMID 34123071; conditions: 0.15 M NaCl, 298 K ref 7, cited from earlier work; for ^GdLH–1r1^is+os / ^GdLr1^is+os: 20 MHz
[12] = cited from earlier work; remark: listed apart in the source
[13] = cited from earlier work; for ^298r1-60-MHz: 298 K; for ^310r1-60-MHz: 310 K
[14] = Longitudinal relaxivity r1 and relaxivity vs pH profiles; format: physicochemical; conditions: 21 MHz, 25 °C
Method: The longitudinal relaxivity values (r1) for GdL1 and GdL2, at 20 MHz (0.47 T), 298 K, and pH 7.4, are 4.7 and 5.1 mM^–1 s^–1, respectively. These are typical values of the clinical MRI contrast agents, i.e., low-molecular-weight q = 1 Gd^III chelates that tumble rapidly in solution.[1],[2] In particular, these values compare well with the r1 reported for GdHPDO3A[24] and other HPDO3A-like complexes such as GdHPDO3MA[25] or the series of Gd-hydroxypropylamide-DO3A (HPADO3A, Scheme 1)[7] complexes measured at the same experimental conditions.
At pH >3, the r1 values of GdL2 decrease with the increase of pH from 6.6 mM^–1 s^–1 to reach a plateau of 5.1 mM^–1 s^–1 around pH = 7.5. A further increase of the pH results in the slight increase of r1 reaching a maximum around pH = 9.5. Finally, at pH >9.5, another small decrease in r1 is observed. On the other hand, in the case of GdL1, the r1 values are independent from the pH in the range 4.0–7.5, whereas at pH >8.0, r1 increases up to 5.2 mM^–1 s^–1. The r1 values of GdL1 were measured in the pH range 4–10 in order to avoid the hydrolysis of the methyl ester. […] Then, the overall relaxivity, r1, is given by eq 1: [drawing 1] 1 where r1^is, r1^os, and r1^pr are the relaxivity components due to the inner and outersphere water molecules and the −OH group, respectively. r1^pr can be expressed as follows:[26]−[28] [drawing 2] 2
Proton relaxation measurements (1/T1) and the resulting 1/T1 NMRD profiles were measured on a fast-field cycling (FFC) Stelar SmarTracer relaxometer over a continuum of magnetic field strengths from 0.000 24 to 0.25 T (corresponding to 0.01–10 MHz proton Larmor frequencies). The relaxometer operates under computer control with an absolute uncertainty in 1/T1 of ±1%. […] Furthermore, the real temperature inside the probe head was additionally monitored by a Fluke 52 k/j digital thermometer (Fluke, Zürich, Switzerland). The gadolinium concentration was determined by measuring the bulk magnetic susceptibility shifts of the t-BuOH ^1H NMR signal. Additional data in the 20–120 MHz frequency range were obtained with a high field relaxometer (Stelar) equipped with the HTS-110 3T metrology cryogen-free superconducting magnet. […] The pH-dependent relaxivity measurements of GdL1 and GdL2 complexes were carried out by direct titration of the samples (GdL2, 3.0 < pH < 12.5; GdL1, 4 < pH < 10). The pH was adjusted by the stepwise addition of concentrated NaOH or HCl solution. Calculations were performed with the computer program Micromath Scientist, version 2.0 (Salt Lake City, UT).

[15] = 0.15 M NaCl, 25 °C ref [11] (SI)
[16] = 0.1 M Me4NCl, 25 °C ref [13], [14] (SI)
[17] = I = 0.1 M Me4NCl, 298 K ref 19, 20

pGd [3]: 15.63 ^h
Compound: O=C(O)CN1CCN(CC(=O)O)CCN(C(CO)C(O)CO)CCN(CC(=O)O)CC1 (stereo not drawn) [BT-DO3A]
ZnHL (log K) ([1]; 0.1 M NaCl, 25 °C ref [5] (SI)): 4.3 | ZnL (log K, stability constant) ([1]; I = 0.1 M NaCl, 298 K ref 15): 17.0 | Gd(L)H–1 (log KGd(L)H-1) ([2]; I = 0.1 M NaCl, 298 K ref 15): 9.48 | CaL (log K, stability constant) ([4]; I = 0.1 M NaCl, 298 K ref 15): 12.1 | log KNa(L) (stability of the Na^+ complex) [5]: 2.32 | GdL (log KGdL, stability constant) ([6]; I = 0.1 M NaCl, 298 K ref 15): 18.7 | GdH2L (log K, *Gd(H2L) out-of-cage intermediate) ([6]; footnote 0.15 M NaCl, 25 °C ref [5] (SI)): 4.53 | CuH2L (log K) ([7]; 0.1 M NaCl, 25 °C ref [5] (SI)): 2.4 | CuHL (log K) ([7]; 0.1 M NaCl, 25 °C ref [5] (SI)): 3.8 | CuL (log K, stability constant) ([7]; I = 0.1 M NaCl, 298 K ref 15): 19.1 | log K1^H ([8]; I = 0.1 M NaCl, 298 K ref 15): 9.46 | log K2^H ([8]; I = 0.1 M NaCl, 298 K ref 15): 9.36 | log K3^H ([8]; I = 0.1 M NaCl, 298 K ref 15): 4.17 | log K4^H ([8]; I = 0.1 M NaCl, 298 K ref 15): 3.02

pGd [3]: 22.09 ^h
Compound: O=C(O)CN1CCN(CC(=O)O)CCN(CC(=O)O)CCN(CC(=O)O)CC1 [DOTA]
log KNa(L) (stability of the Na^+ complex) [5]: 4.38 | GdL (log KGdL, stability constant) ([6]; I = 0.1 M NaCl, 298 K ref 22): 24.7 | GdH2L (log K, *Gd(H2L) out-of-cage intermediate) ([6]; footnote 0.15 M NaCl, 25 °C ref [16] (SI)): 6.07 | log K1^H ([8]; I = 0.1 M NaCl, 298 K ref 22): 9.37 | log K2^H ([8]; I = 0.1 M NaCl, 298 K ref 22): 9.14 | log K3^H ([8]; I = 0.1 M NaCl, 298 K ref 22): 4.63 | log K4^H ([8]; I = 0.1 M NaCl, 298 K ref 22): 3.91

kd at pH = 7.4 [9]: 1.35 × 10^–12 s^–1
Compound: O=C([O-])CN1CCN(CC(=O)[O-])CCN(C(CO)C(O)CO)CCN(CC(=O)[O-])CC1.[Gd+3] (stereo not drawn) [GdBT-DO3A]
k1 (acid-catalyzed dissociation rate constant) ([10]; 298 K ref 15): 2.8 × 10^–5 M^–1 s^–1

kd at pH = 7.4 [9]: 7.28 × 10^–14 s^–1
Compound: O=C([O-])CN1CCN(CC(=O)[O-])CCN(CC(=O)[O-])CCN(CC(=O)[O-])CC1.[Gd+3] [GdDOTA]
K^HGdL ([10]; 298 K ref 18): 14 M^–1 | k1 (acid-catalyzed dissociation rate constant) ([10]; 298 K ref 18): 1.8 × 10^–6 M^–1 s^–1

kd at pH = 7.4 [9]: 6.41 × 10^–12 s^–1
Compound: NC(=O)[C@H](O)CN1CCN(CC(=O)[O-])CCN(CC(=O)[O-])CCN(CC(=O)[O-])CC1.[Gd+3] [GdHPADO3A]
kH × 10^–11 [11]: 2.1 M^–1 s^–1 | ^GdLH–1r1^is+os [11]: 4.32 mM^–1 s^–1 | ^GdLr1^is+os [11]: 4.57 mM^–1 s^–1 | k1 (acid-catalyzed dissociation rate constant) ([10]; 298 K ref 7): 1.6 × 10^–4 M^–1 s^–1 | Δr1 (relaxivity increase) ([12]; from pH 7.4 to 5 ref 7): 5.5 mM^–1 s^–1 | ^298r1-60-MHz ([13]; 60 MHz ref 7): 3.6 mM^–1 s^–1 | ^310r1-60-MHz ([13]; 60 MHz ref 7): 2.9 mM^–1 s^–1 | Δ^2 [13]: 8.5 10^19 s^–2 | τR [13]: 62 ps | τv [13]: 14 ps | τR(SS) ([13]; determined for qSS = 2 and rSF = 3.5 Å ref 7): 13 | τM ([13]; pH 7 ref 7): 20 ns

Compound: CC(O)CN1CCN(CC(=O)[O-])CCN(CC(=O)[O-])CCN(CC(=O)[O-])CC1.[Gd+3] (stereo not drawn) [GdHPDO3A]
kOH × 10^–10 [11]: 1.0 M^–1 s^–1 | ^GdLH–1r1^is+os [11]: 4.54 mM^–1 s^–1 | ^GdLr1^is+os [11]: 4.28 mM^–1 s^–1 | kd at pH = 7.4 [9]: 1.15 × 10^–11 s^–1 | k1 (acid-catalyzed dissociation rate constant) ([10]; 298 K ref 18): 2.9 × 10^–4 M^–1 s^–1 | Δr1 (base-catalyzed proton exchange contribution to r1) ([12]; pH > 10 ref 5): 1.2 mM^–1 s^–1 | ^298r1-60-MHz ([13]; 60 MHz ref 24): 4.2 mM^–1 s^–1 | ^310r1-60-MHz ([13]; 60 MHz ref 24): 3.2 mM^–1 s^–1 | Δ^2 ([13]; SAP isomer ref 24): 9.9 10^19 s^–2 | τM ([13]; SAP isomer ref 24): 640 ns | τv ([13]; SAP isomer ref 24): 8 ps | Δ^2 ([13]; TSAP isomer ref 24): 1.5 10^19 s^–2 | τM ([13]; TSAP isomer ref 24): 8.5 ns | τv ([13]; TSAP isomer ref 24): 30 ps | τR [13]: 65 ps

Compound: [Gd+3] [Gd^3+]
r1p [14]: 12.85 (2) mM^–1 s^–1

pGd [3]: 16.88 ^h
Compound: NC(=O)[C@H](O)CN1CCN(CC(=O)O)CCN(CC(=O)O)CCN(CC(=O)O)CC1 [HPADO3A]
Zn(L)H-1 (log K) [1, 15]: 10.79 (5) | ZnH2L (log K) [1, 15]: 2.87 | ZnHL (log K) [1, 15]: 3.67 | ZnL (log K, stability constant) ([1]; I = 0.15 M NaCl, 298 K ref 7): 17.18 | Gd(L)H–1 (log KGd(L)H-1) ([2]; I = 0.15 M NaCl, 298 K ref 7): 6.73 | Ca(L)H-1 (log K) [4, 15]: 11.50 | CaHL (log K) [4, 15]: 4.67 | CaL (log K, stability constant) ([4]; I = 0.15 M NaCl, 298 K ref 7): 12.13 | GdH2L (log K, *Gd(H2L) out-of-cage intermediate) [6, 15]: 5.72 | GdL (log KGdL, stability constant) ([6]; I = 0.15 M NaCl, 298 K ref 7): 18.41 | Cu(L)H-1 (log K) [7, 15]: 10.55 | CuH2L (log K) [7, 15]: 1.24 | CuHL (log K) [7, 15]: 4.00 | CuL (log K, stability constant) ([7]; I = 0.15 M NaCl, 298 K ref 7): 21.53 | log K1^H ([8]; I = 0.15 M NaCl, 298 K ref 7): 8.96 | log K2^H ([8]; I = 0.15 M NaCl, 298 K ref 7): 9.07 | log K3^H ([8]; I = 0.15 M NaCl, 298 K ref 7): 4.22 | log K4^H ([8]; I = 0.15 M NaCl, 298 K ref 7): 2.64 | log K5^H ([8]; I = 0.15 M NaCl, 298 K ref 7): 1.25

Compound: CC(O)CN1CCN(CC(=O)O)CCN(CC(=O)O)CCN(CC(=O)O)CC1 (stereo not drawn) [HPDO3A, 10-(2-hydroxypropyl)-1,4,7,10-tetraazacyclododecane-1,4,7-triacetic acid]
ZnHL (log K) [1, 16]: 3.7 | ZnL (log K, stability constant) [1, 17]: 19.37 | pGd [3]: 18.16 ^h | CaL (log K, stability constant) [4, 17]: 14.83 | GdL (log KGdL, stability constant) [6, 17]: 23.8 | GdH2L (log K, *Gd(H2L) out-of-cage intermediate) ([6]; footnote 0.15 M NaCl, 25 °C ref [13], [14] (SI)): 5.10 | CuH2L (log K) [7, 16]: 2.3 | CuHL (log K) [7, 16]: 3.72 | CuL (log K, stability constant) [7, 17]: 22.84 | log K1^H [8, 17]: 11.96 | log K2^H [8, 17]: 9.43 | log K3^H [8, 17]: 4.30 | log K4^H [8, 17]: 3.26
